From patent publication US5618813A, “Benzo[5.6]pyrano[2.3.4-ij]quinolizine and benzo[5.6]thiopyrano[2.3.4-ij]quinolizine derivatives as antibacterial and antineoplastic agents” (Abbott Laboratories, priority 1995, dated 1997)
In brackets after ≈: the same amount, converted by molar mass. Structures can show the parent of a compound that is named as a salt. Where two headings read alike, the source gives them in different places.

What was measured:
Test in all cases: In vitro antibacterial activity (MIC, agar dilution)
Format in all cases: cell-based
[1] = tested on: Acinetobacter calcoaceticus CMX 669; details: CMX669
Experimental: (§1) Each plate was inoculated with 1:100 (or 1:10 for slow-growing strains, primarily Micrococcus and Streptococcus) dilutions of up to 32 different microorganisms, using a Steers replicator block calibrated to deliver approximately 10^4 colony forming units (CFUs). The inoculated plates were incubated at from about 35° C. to about 37° C. for approximately 20-24 hours. In o addition, a control plate using BHI agar containing no test compound was prepared and incubated at the beginning and at the end of each test. The quinolone antibacterial ciprofloxacin was used as a control ("Cntl").
(§2) The MIC was defined as the lowest concentration of test compound yielding no growth (a slight haze or sparsely isolated colonies at the inoculum spot) as compared to the growth control containing no test compound.

Candida albicans CCH 442 = details: CCH442
Experimental: as §1, §2

E. coli DC-2 = details: Escherichia coli, DC2
Experimental: as §1, §2

E. coli H560 = details: Escherichia coli
Experimental: as §1, §2

E. coli KNK 437 = details: Escherichia coli, KNK437
Experimental: as §1, §2

E. coli SS = details: Escherichia coli
Experimental: as §1, §2

[2] = tested on: Enter. aerogenes ATCC 13048; details: Klebsiella aerogenes, ATCC13048
Experimental: as §1, §2

[3] = tested on: Entero. faecium ATCC 8043; details: Enterococcus faecium, ATCC8043
Experimental: as §1, §2

Escherichia coli Juhl = tested on: Escherichia coli Juhl
Experimental: as §1, §2

[4] = tested on: Klebsiella pneumoniae ATCC 8045; details: ATCC8045
Experimental: as §1, §2

M. luteus ATCC 4698 = details: Micrococcus luteus, ATCC4698
Experimental: as §1, §2

M. luteus ATCC 9341 = details: Micrococcus luteus, ATCC9341
Experimental: as §1, §2

Myco. smegmatis ATCC 114 = details: Mycolicibacterium smegmatis, ATCC114
Experimental: as §1, §2

[5] = tested on: Nocardia asteroides ATCC 9970; details: ATCC9970
Experimental: as §1, §2

P. aeruginosa 2862 = details: Pseudomonas aeruginosa
Experimental: as §1, §2

P. aeruginosa 5263 = details: Pseudomonas aeruginosa
Experimental: as §1, §2

P. aeruginosa A5007 = details: Pseudomonas aeruginosa
Experimental: as §1, §2

P. aeruginosa BMH 10 = details: Pseudomonas aeruginosa, BMH10
Experimental: as §1, §2

P. aeruginosa K799/61 = details: Pseudomonas aeruginosa
Experimental: as §1, §2

P. aeruginosa K799/WT = details: Pseudomonas aeruginosa
Experimental: as §1, §2

[6] = tested on: Providencia stuartii CMX 640; details: CMX640
Experimental: as §1, §2

Pseudomonas cepacia 296I = details: Burkholderia cepacia
Experimental: as §1, §2

[7] = tested on: Staph. aureus 1775 Cipro.R.; details: Staphylococcus aureus
Experimental: as §1, §2

Staph. aureus 5278 = details: Staphylococcus aureus
Experimental: as §1, §2

Staph. aureus 642A = details: Staphylococcus aureus
Experimental: as §1, §2

Staph. aureus A5177 = details: Staphylococcus aureus
Experimental: as §1, §2

Staph. aureus ATCC 6538P = details: Staphylococcus aureus, ATCC6538P
Experimental: as §1, §2

Staph. aureus CMX 553 = details: Staphylococcus aureus, CMX553
Experimental: as §1, §2

Staph. aureus NCTC10649 = details: Staphylococcus aureus
Experimental: as §1, §2

Staph. epidermidis 3519 = details: Staphylococcus epidermidis
Experimental: as §1, §2

[8] = tested on: Strep. agalactiae CMX 508; details: Streptococcus agalactiae, CMX508
Experimental: as §1, §2

Strep. bovis A5169 = details: Streptococcus equinus
Experimental: as §1, §2

[9] = tested on: Strep. pyogenes 2458 INDUC; details: Streptococcus pyogenes
Experimental: as §1, §2

[10] = tested on: Strep. pyogenes 930 CONST; details: Streptococcus pyogenes
Experimental: as §1, §2

Strep. pyogenes EES61 = details: Streptococcus pyogenes
Experimental: as §1, §2

[11] = Acinetobacter calcoaceticus CMX 669, agar dilution, read-out: MIC
[12] = Candida albicans CCH 442, agar dilution, read-out: MIC
[13] = E. coli DC-2, agar dilution, read-out: MIC
[14] = E. coli H560, agar dilution, read-out: MIC
[15] = E. coli KNK 437, agar dilution, read-out: MIC
[16] = E. coli SS, agar dilution, read-out: MIC
[17] = M. luteus ATCC 4698, agar dilution, read-out: MIC
[18] = M. luteus ATCC 9341, agar dilution, read-out: MIC
[19] = P. aeruginosa 2862, agar dilution, read-out: MIC
[20] = P. aeruginosa 5263, agar dilution, read-out: MIC
[21] = P. aeruginosa A5007, agar dilution, read-out: MIC
[22] = P. aeruginosa BMH 10, agar dilution, read-out: MIC
[23] = P. aeruginosa K799/WT, agar dilution, read-out: MIC
[24] = Strep. bovis A5169, agar dilution, read-out: MIC
[25] = Entero. faecium ATCC 8043, agar dilution, read-out: MIC

Compound	MIC [1, 11]	MIC (E. coli DC-2; [13])	MIC (E. coli H560; [14])	MIC [2]	MIC (Escherichia coli Juhl)	MIC (P. aeruginosa K799/61)	MIC [6]	MIC (Pseudomonas cepacia 296I)	MIC [7]	MIC (Staph. aureus 5278)	MIC (Staph. aureus 642A)	MIC (Staph. aureus A5177)	MIC (Staph. aureus ATCC 6538P)	MIC (Staph. aureus CMX 553)	MIC (Staph. aureus NCTC10649)	MIC (Staph. epidermidis 3519)	MIC [8]	MIC [9]	MIC [10]	MIC (Strep. pyogenes EES61)	also measured
N[C@H]1CCC[C@H]2CN(c3c(F)cn4c(=O)c(C(=O)O)cc5c4c3Oc3ccccc3-5)C[C@H]21 (relative stereo) [Example 3, 1-(3aα, 4β, 7aα-4-aminooctahydro-[1H]-isoindol-2-yl)-2-fluoro-5H-5-oxo-benzo[5.6]pyrano[2.3.4-ij]quinolizine-6-carboxylic acid hydrochloride]	12.5 µg/mL	100 µg/mL	6.2 µg/mL	25 µg/mL	6.2 µg/mL	1.56 µg/mL	100 µg/mL	> 100 µg/mL	3.1 µg/mL	0.78 µg/mL	0.78 µg/mL	0.78 µg/mL	0.78 µg/mL	0.78 µg/mL	0.78 µg/mL	0.78 µg/mL	0.39 µg/mL	0.39 µg/mL	0.2 µg/mL	0.39 µg/mL	MIC (Candida albicans CCH 442; [12]): > 100 µg/mL; MIC (E. coli KNK 437; [15]): 25 µg/mL; MIC (E. coli SS; [16]): 0.78 µg/mL; MIC [3]: 1.56 µg/mL; MIC ([4]; Klebsiella pneumoniae): 1.56 µg/mL; MIC (M. luteus ATCC 4698; [17]): 0.78 µg/mL; MIC (M. luteus ATCC 9341; [18]): 0.39 µg/mL; MIC (Myco. smegmatis ATCC 114): 0.78 µg/mL; MIC ([5]; Nocardia asteroides): 1.56 µg/mL; MIC (P. aeruginosa 2862; [19]): > 100 µg/mL; MIC (P. aeruginosa 5263; [20]): > 100 µg/mL; MIC (P. aeruginosa A5007; [21]): > 100 µg/mL; MIC (P. aeruginosa BMH 10; [22]): 100 µg/mL; MIC (P. aeruginosa K799/WT; [23]): > 100 µg/mL; MIC (Strep. bovis A5169; [24]): 0.39 µg/mL
O=C(O)c1cn(C2CC2)c2cc(N3CCNCC3)c(F)cc2c1=O [Ciprofloxacin, ciprofloxacin, reference compound]	–	–	–	0.02 µg/mL (≈ 0.0604 µM)	0.01 µg/mL (≈ 0.0302 µM)	0.02 µg/mL (≈ 0.0604 µM)	0.78 µg/mL (≈ 2.35 µM)	3.1 µg/mL (≈ 9.36 µM)	> 100 µg/mL	0.39 µg/mL (≈ 1.18 µM)	0.39 µg/mL (≈ 1.18 µM)	0.39 µg/mL (≈ 1.18 µM)	0.2 µg/mL (≈ 0.604 µM)	0.78 µg/mL (≈ 2.35 µM)	0.39 µg/mL (≈ 1.18 µM)	0.39 µg/mL (≈ 1.18 µM)	0.39 µg/mL (≈ 1.18 µM)	0.39 µg/mL (≈ 1.18 µM)	0.78 µg/mL (≈ 2.35 µM)	0.78 µg/mL (≈ 2.35 µM)	MIC ([1]; Acinetobacter calcoaceticus): 0.39 µg/mL (≈ 1.18 µM); MIC (Candida albicans CCH 442; Candida albicans): > 100 µg/mL; MIC (E. coli DC-2): 0.2 µg/mL (≈ 0.604 µM); MIC (E. coli H560; H560): 0.01 µg/mL (≈ 0.0302 µM); MIC (E. coli KNK 437): 0.2 µg/mL (≈ 0.604 µM); MIC (E. coli SS): 0.005 µg/mL (≈ 0.0151 µM); MIC [3, 25]: 0.39 µg/mL (≈ 1.18 µM); MIC ([4]; Klebsiella pneumoniae): 0.02 µg/mL (≈ 0.0604 µM); MIC (M. luteus ATCC 4698): 0.78 µg/mL (≈ 2.35 µM); MIC (M. luteus ATCC 9341): 1.56 µg/mL (≈ 4.71 µM); MIC (Myco. smegmatis ATCC 114): 0.78 µg/mL (≈ 2.35 µM); MIC ([5]; Nocardia asteroides): 12.5 µg/mL (≈ 37.7 µM); MIC (P. aeruginosa 2862; 2862): 12.5 µg/mL (≈ 37.7 µM); MIC (P. aeruginosa 5263; 5263): 12.5 µg/mL (≈ 37.7 µM); MIC (P. aeruginosa A5007; A5007): 0.1 µg/mL (≈ 0.302 µM); MIC (P. aeruginosa BMH 10): 0.1 µg/mL (≈ 0.302 µM); MIC (P. aeruginosa K799/WT; K799/WT): 0.1 µg/mL (≈ 0.302 µM); MIC (Strep. bovis A5169; A5169): 1.56 µg/mL (≈ 4.71 µM)
O=C(O)c1cc2c3c(c(N4CCOCC4)c(F)cn3c1=O)Oc1ccccc1-2 [Example 1, 1-(1-morpholinyl)-2-fluoro-5H-5-oxo-benzo[5.6]pyrano[2,3.4-ij]quinolizine-6-carboxylic acid]	1.56 µg/mL (≈ 4.08 µM)	> 100 µg/mL	> 100 µg/mL	> 100 µg/mL	> 100 µg/mL	12.5 µg/mL (≈ 32.7 µM)	> 100 µg/mL	100 µg/mL (≈ 262 µM)	1.56 µg/mL (≈ 4.08 µM)	0.78 µg/mL (≈ 2.04 µM)	0.78 µg/mL (≈ 2.04 µM)	0.78 µg/mL (≈ 2.04 µM)	0.78 µg/mL (≈ 2.04 µM)	0.78 µg/mL (≈ 2.04 µM)	0.39 µg/mL (≈ 1.02 µM)	0.39 µg/mL (≈ 1.02 µM)	3.1 µg/mL (≈ 8.11 µM)	6.2 µg/mL (≈ 16.2 µM)	6.2 µg/mL (≈ 16.2 µM)	3.1 µg/mL (≈ 8.11 µM)	MIC (E. coli KNK 437; [15]): 50 µg/mL (≈ 131 µM); MIC (E. coli SS; [16]): 0.39 µg/mL (≈ 1.02 µM); MIC [3, 25]: 25 µg/mL (≈ 65.4 µM); MIC ([4]; Klebsiella pneumoniae): 12.5 µg/mL (≈ 32.7 µM); MIC (M. luteus ATCC 4698; [17]): 0.39 µg/mL (≈ 1.02 µM); MIC (M. luteus ATCC 9341; [18]): 1.56 µg/mL (≈ 4.08 µM); MIC (P. aeruginosa 2862; [19]): > 100 µg/mL; MIC (P. aeruginosa 5263; [20]): > 100 µg/mL; MIC (P. aeruginosa A5007; [21]): > 100 µg/mL; MIC (P. aeruginosa BMH 10; [22]): > 100 µg/mL; MIC (P. aeruginosa K799/WT; [23]): > 100 µg/mL; MIC (Strep. bovis A5169; [24]): 25 µg/mL (≈ 65.4 µM)
NC1CCN(c2c(F)cn3c(=O)c(C(=O)O)cc4c3c2Oc2ccccc2-4)C1 (centres unmarked) [Example 2, 1-(3-amino-pyrrolidinyl)-2-fluoro-5H-5-oxo-benzo[5,6]pyrano[2.3.4-ij]quinolizine-6-carboxylic acid hydrochloride]	6.2 µg/mL	12.5 µg/mL	3.1 µg/mL	6.2 µg/mL	3.1 µg/mL	6.2 µg/mL	> 100 µg/mL	> 100 µg/mL	6.2 µg/mL	6.2 µg/mL	6.2 µg/mL	6.2 µg/mL	6.2 µg/mL	6.2 µg/mL	3.1 µg/mL	3.1 µg/mL	3.1 µg/mL	3.1 µg/mL	3.1 µg/mL	3.1 µg/mL	MIC (Candida albicans CCH 442; [12]): > 100 µg/mL; MIC (E. coli KNK 437; [15]): 3.1 µg/mL; MIC (E. coli SS; [16]): 0.78 µg/mL; MIC [3, 25]: 6.2 µg/mL; MIC ([4]; Klebsiella pneumoniae ATCC 8045, agar dilution, read-out: MIC): 1.56 µg/mL; MIC (M. luteus ATCC 4698; [17]): 3.1 µg/mL; MIC (M. luteus ATCC 9341; [18]): 3.1 µg/mL; MIC (Myco. smegmatis ATCC 114): 3.1 µg/mL; MIC ([5]; Nocardia asteroides ATCC 9970, agar dilution, read-out: MIC): 3.1 µg/mL; MIC (P. aeruginosa 2862; [19]): > 100 µg/mL; MIC (P. aeruginosa 5263; [20]): > 100 µg/mL; MIC (P. aeruginosa A5007; [21]): 100 µg/mL; MIC (P. aeruginosa BMH 10; [22]): 25 µg/mL; MIC (P. aeruginosa K799/WT; [23]): 50 µg/mL; MIC (Strep. bovis A5169; [24]): 3.1 µg/mL
